In brackets after ≈: the same amount, converted by molar mass. Where two headings read alike, the source gives them in different places.
System: strain Pyt^T
Assay: Antibiotic resistance by the Etest method (MIC)
Type: cell-based, Akkermansia glycaniphilus
Details: for Level of resistance / sensitivity of strain Pyt^T to the antibiotic: EUCAST breakpoint table for Gram-negative anaerobes (Version 5.0); for MIC: read-out: Minimal Inhibitory Concentration (MIC)
Protocol: Antibiotic resistance was determined using the Etest method for both ampicillin and vancomycin (bioMérieux, Marcy l'Étoile, France). The minimal inhibitory concentration (MIC) was determined after 48 hours of incubation. In more detail, strain Pyt^T was grown in mucin media and after reaching stationary phase 100 ul was plated onto BHI plates supplemented with 0.5% (v/v) hog gastric mucin (Type III, Sigma), and 0.05% (w/v) of cysteine-HCL (Sigma-ALdrich). Plates were incubated for 24-48 hours under strictly anaerobic conditions. The level of resistance was determined using the European Committee on Antimicrobial Susceptibility Testing (EUCAST) breakpoint table for interpretation of MICs for Gram-negative anaerobes (Version 5.0, valid from 2015-01-01).

Molecule	Level of resistance / sensitivity of strain Pyt^T to the antibiotic (Etest)	MIC (Etest, BHI plates with 0.5% hog gastric mucin and 0.05% cysteine-HCl, strictly anaerobic, read after 48 hours)	MIC (48 h)
cholistin	sensitive		
CC1(C)S[C@@H]2[C@H](NC(=O)[C@H](N)c3ccccc3)C(=O)N2[C@H]1C(=O)O [ampicillin]	relatively resistant	32 µg/mL (≈ 91.6 µM)	
O=C(N[C@H](CO)[C@H](O)c1ccc([N+](=O)[O-])cc1)C(Cl)Cl [chloramphenicol]	sensitive		
Cc1ncc([N+](=O)[O-])n1CCO [metronidazole]	sensitive		
CN[C@H](CC(C)C)C(=O)N[C@H]1C(=O)N[C@@H](CC(N)=O)C(=O)N[C@H]2C(=O)N[C@H]3C(=O)N[C@H](C(=O)N[C@H](C(=O)O)c4cc(O)cc(O)c4-c4cc3ccc4O)[C@H](O)c3ccc(c(Cl)c3)Oc3cc2cc(c3O[C@@H]2O[C@H](CO)[C@@H](O)[C@H](O)[C@H]2O[C@H]2C[C@](C)(N)[C@H](O)[C@H](C)O2)Oc2ccc(cc2Cl)[C@H]1O [vancomycin]	relatively resistant		24 µg/mL (≈ 16.6 µM)
